This is an account of results in patent US20210315893A1 (Galapagos NV, priority 2017, published 2021).

A word on the EC50: it is the concentration at which the effect is half-maximal.

Assay [1] relates to HFL-1 cells. Put plainly: IL-8 production assay (S1P induced IL-8). The following applies: Homo sapiens, HFL1; S1P (1 μM) induced IL-8 in HFL-1 cells, starvation medium without HSA; read-out: IL8 EC50. It is filed as cell-based. In outline:
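HFL-1 human fetal lung fibroblasts were starved in F12K/1% FBS, then given compound for 1 h (10-point, 1/3 dilution, 30 μM top, 0.3% DMSO final). S1P was added at 1 μM final for 16–24 h at 37 °C, and secreted IL-8 in supernatant quantified by ELISA.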

For assay [2], the target named is T1, human GPCR sphingosine 1-phosphate receptor 1 (Homo sapiens, UniProt P21453).
T1 construct: host or cells: CHO
Put plainly: S1PR1 selectivity Ca2+ flux assay (antagonist readout). It is filed as cell-based. The following applies: antagonist readout, CHO cells overexpressing human S1PR1 and Gq, S1P at EC80 (6 nM); read-out: S1P1 EC50 (nM), S1P1 antagonist EC50. In outline:
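CHO cells stably overexpressing human S1PR1, starved 1 h in 0.1% FAF BSA medium, then Fluo 8 dye-loaded. Compound added, then after 15 min at 37 °C, S1P-evoked Ca2+ flux recorded. Maximal signal/background ratio normalized to controls as % inhibition; IC50 from four-parameter logistic fit.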
On the technique in general: Calcium flux is commonly read through the fluorescence of an indicator in the cells.

In assay [3] the test system is bleomycin induced pulmonary fibrosis in mice. Briefly: Therapeutic bleomycin induced pulmonary fibrosis 21-day mice model. It is filed as in vivo. The conditions noted are these: 10 mg/kg BID. As for the experimental part:
The aim of the study is to test the efficacy of a test compound at three different doses in a 21-day model of bleomycin induced pulmonary fibrosis in mice.
This study is carried out on C57BL/6N male mice, supplied by Charles River, Italy, which are acclimatized for at least 5 days in an environment maintained at 22° C., at 55% relative humidity, with 15-20 air changes per h under light cycles of 12 h. Mice pelleted food and water are provided ad libitum.
The solvent for the test solutions is prepared by adding 0.5 g of hydroxyethylcellulose (Natrosol) into 500 mL Aqua distillate (0.1%) under continuous stirring without heating for 5 h on a magnetic stirrer.
Fresh Nintedanib formulation is prepared daily in 0.1% Natrosol formulations to a final concentration of 5 mg/mL. Before dosing, animals are weighed and the Nintedanib amount administered is adjusted accordingly to individual weights corresponding to 10 mL/kg body weight, once daily p.o.,
Finally, test compound solutions are prepared by dissolving the suitable amount of said test compound in PEG 400 (20% of the final volume) then MC 0.5% (80% of the final volume) to reach final concentrations of 1 mg/mL, 0.3 mg/mL and 0.1 mg/mL, thus yielding compound for a doses of 10 mg/kg, 3 mg/kg and 1 mg/kg. […]
(§1) Pulmonary histological changes are assessed using Matsuse modification of Ashcroft score (Ashcroft et al., 1988; Matsuse et al., 1999). […]

Assay [4] has the same test system. Briefly: Prophylactic bleomycin induced pulmonary fibrosis 14-day mice model. In kind it is in vivo. The conditions noted are these: 10 mg/kg BID. As for the experimental part:
The aim of the study is totest the efficacy of atest compound at three different doses ina 14-day model of bleomycin induced pulmonary fibrosis in mice.
This study is carried out on […] male mice, supplied by Charles River, Italy, which are acclimatized for at least 5 days in an environment maintained at 22° C., at 55% relative humidity, with 15-20 air changes per h under light cycles of 12 h. Mice pelleted food and water are provided ad libitum.
The solvent for the test solutions is prepared by adding 0.5 g of hydroxyethylcellulose (Natrosol) into 500 mL Aqua distillate (0.1%) under continuous stirring without heating for 5 h on a magnetic stirrer. Anesthetic solution is prepared by adding 1 mL of Narketan (Narketan 10, Vetoquinol, Bern, Switzerland, 03605877535982) and 0.5 mL of Rompun (Rompun, 2%. Bayer, Leverkusen, Germany) into 9 mL saline. The resulting solution is administered at 10 mL/kg.
Prior to i.n administration, mice are anesthetized i.p. with the anesthetic solution described above.
Fresh pirfenidone formulation is prepared daily in 0.1% Natrosol formulations to a final concentration of 5 mg/mL. […]
as §1

Assay [5] relates to HFL-1 cells. Briefly: IL8 assay in the presence of Human Serum Albumin. The conditions noted are these: HFL1, read-out: HSA IL8 EC50.
Assay [6] has as its target T2, S1PR2 (Homo sapiens, UniProt O95136).
T2 construct: expressed in transfected cells
Briefly: S1PR2 binding assay (competition with radioactively labeled S1P, SpA). The following applies: membranes from stable cell line over expressing S1PR2, SpA beads; read-out: S1P2 EC50 (nM), S1PR2 binding EC50. In outline:
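Competition with [3H]S1P for membranes from a stable S1PR2-overexpressing cell line, 20 μg/well, captured on PVT-WGA SPA beads, in 20 mM Tris pH 7.5, 10 mM MgCl2, 100 mM NaCl, 0.4% fatty-acid-free BSA, 1 mM Na3VO4. 2 h at room temperature, then centrifugation and scintillation counting.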

The target of assay [7] is T3, human GPCR sphingosine 1-phosphate receptor 2 (Homo sapiens, UniProt O95136).
T3 construct: host or cells: CHO
Put plainly: S1PR2 antagonist Ca2+ flux assay. The conditions noted are these: antagonist mode, CHO-S1PR2 cells, S1P at EC80, Ca2+ fluorescence; read-out: S1P2 EC50 (nM), S1P2 antagonist EC50. It is filed as cell-based. Summed up: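 CHO cells stably expressing human S1PR2, serum-starved 1 h, Fluo8-loaded; compound-evoked Ca2+ fluorescence read 3 min (agonist mode), then after 15 min S1P at EC80 added and read 3 min (antagonist mode). Max/baseline fluorescence ratios normalised to vehicle and S1P EC100 or EC50 controls; EC50 derived.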

In assay [8] the target is T4, human GPCR sphingosine 1-phosphate receptor 5 (Homo sapiens, UniProt Q9H228).
T4 construct: host or cells: CHO
Briefly: S1PR5 selectivity Ca2+ flux assay (antagonist readout). In kind it is cell-based. The conditions noted are these: CHO cells overexpressing human S1PR5 and Gq, agonist at EC80 (20 nM), read-out: S1P5 EC50 (nM), S1P5 antagonist EC50. Summed up: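 CHO cells stably coexpressing human S1PR5 and Gq were serum-starved, Fluo 8-loaded and preincubated 15 min at 37° C with compound. They were then stimulated at EC80 with an S1PR5-specific agonist, and calcium fluorescence was recorded for 3 min. Peak/baseline ratios were normalized to controls and fitted to a four-parameter IC50 equation.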

T1 sequence (P21453 whole entry): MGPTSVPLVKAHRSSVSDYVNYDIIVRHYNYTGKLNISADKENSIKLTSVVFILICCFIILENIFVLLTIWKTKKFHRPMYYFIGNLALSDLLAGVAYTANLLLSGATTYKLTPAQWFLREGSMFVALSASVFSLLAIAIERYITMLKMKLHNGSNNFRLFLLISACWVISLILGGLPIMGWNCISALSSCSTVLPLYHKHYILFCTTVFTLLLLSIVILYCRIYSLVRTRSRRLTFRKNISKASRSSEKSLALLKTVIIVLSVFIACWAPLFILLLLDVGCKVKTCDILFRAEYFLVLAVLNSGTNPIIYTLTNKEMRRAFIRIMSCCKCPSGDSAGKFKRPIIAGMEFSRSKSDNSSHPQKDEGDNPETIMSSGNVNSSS
T4 sequence (Q9H228 whole entry): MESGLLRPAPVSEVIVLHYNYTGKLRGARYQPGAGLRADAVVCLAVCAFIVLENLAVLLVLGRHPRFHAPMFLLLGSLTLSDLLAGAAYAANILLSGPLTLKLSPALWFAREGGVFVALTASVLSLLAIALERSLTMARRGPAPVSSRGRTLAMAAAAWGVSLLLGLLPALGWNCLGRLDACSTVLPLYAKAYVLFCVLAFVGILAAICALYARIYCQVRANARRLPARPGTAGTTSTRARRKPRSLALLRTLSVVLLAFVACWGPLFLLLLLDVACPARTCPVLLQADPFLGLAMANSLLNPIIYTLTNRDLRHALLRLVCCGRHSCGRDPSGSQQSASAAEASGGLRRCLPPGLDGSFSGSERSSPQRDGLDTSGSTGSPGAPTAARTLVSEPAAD
T2 sequence (O95136 whole entry): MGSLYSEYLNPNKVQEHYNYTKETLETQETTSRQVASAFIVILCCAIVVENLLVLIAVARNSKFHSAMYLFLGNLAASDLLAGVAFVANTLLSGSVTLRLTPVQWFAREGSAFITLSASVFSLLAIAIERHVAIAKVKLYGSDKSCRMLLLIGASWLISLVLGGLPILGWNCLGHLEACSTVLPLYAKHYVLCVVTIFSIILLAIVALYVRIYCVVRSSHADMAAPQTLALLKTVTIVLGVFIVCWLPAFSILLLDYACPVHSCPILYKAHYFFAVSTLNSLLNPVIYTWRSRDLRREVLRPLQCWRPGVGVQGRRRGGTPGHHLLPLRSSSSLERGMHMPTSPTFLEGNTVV
T3 sequence (O95136 whole entry): as above

`O=C(O)Cn1nc(Cc2nc3cc(Cl)c(OCC4CC4)cc3[nH]2)c2ccccc2c1=O` [Compound 115, 2-[4-[[5-chloro-6-(cyclopropylmethoxy)-1H-benzimidazol-2-yl]methyl]-1-oxo-phthalazin-2-yl]acetic acid]: the EC50 was found to be 5.73 nM in assay [1], 3620 nM in assay [2] and 51.8 nM in assay [5]. Moreover, the Ashcroft score difference entry in assay [3] and in assay [4] was “statistically significant Ashcroft score difference” throughout.

Turning to `N#Cc1ccc2c(=O)n(CC(=O)O)nc(Cc3nc4cc(Cl)c(OCC(F)F)cc4[nH]3)c2c1` [compound 23, 2-[4-[[5-chloro-6-(2,2-difluoro-ethoxy)-1H-benzimidazol-2-yl]methyl]-6-cyano-1-oxo-phthalazin-2-yl]acetic acid], the EC50 was 306 nM in assay [6]; 14.6 nM in assay [7]; 58.1 nM in assay [1]; not below 19800 nM in assay [2]; 19800 nM in assay [8]; 293 nM in assay [5].
